Assay results reported in patent publication US11912703B2, “6-azaindole compounds” (BRISTOL-MYERS SQUIBB COMPANY, priority 2017, dated 2024).
Read-outs that look alike come from different tables or passages of the source.

Experiments:
human TLR9 = human TLR9 (Homo sapiens (Human), UniProt Q9NR96); experiment: TLR9 inhibition reporter assay (HEK-Blue SEAP);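 further: SEAP driven by IFN-β minimal promoter carrying five NF-κB and AP-1 sites, 22 h at 37 °C, compounds 0.05 nM–50 µM, inhibition scaled between agonist-plus-DMSO and reference-inhibitor wells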
human TLR9, sequence (Q9NR96 26-1032): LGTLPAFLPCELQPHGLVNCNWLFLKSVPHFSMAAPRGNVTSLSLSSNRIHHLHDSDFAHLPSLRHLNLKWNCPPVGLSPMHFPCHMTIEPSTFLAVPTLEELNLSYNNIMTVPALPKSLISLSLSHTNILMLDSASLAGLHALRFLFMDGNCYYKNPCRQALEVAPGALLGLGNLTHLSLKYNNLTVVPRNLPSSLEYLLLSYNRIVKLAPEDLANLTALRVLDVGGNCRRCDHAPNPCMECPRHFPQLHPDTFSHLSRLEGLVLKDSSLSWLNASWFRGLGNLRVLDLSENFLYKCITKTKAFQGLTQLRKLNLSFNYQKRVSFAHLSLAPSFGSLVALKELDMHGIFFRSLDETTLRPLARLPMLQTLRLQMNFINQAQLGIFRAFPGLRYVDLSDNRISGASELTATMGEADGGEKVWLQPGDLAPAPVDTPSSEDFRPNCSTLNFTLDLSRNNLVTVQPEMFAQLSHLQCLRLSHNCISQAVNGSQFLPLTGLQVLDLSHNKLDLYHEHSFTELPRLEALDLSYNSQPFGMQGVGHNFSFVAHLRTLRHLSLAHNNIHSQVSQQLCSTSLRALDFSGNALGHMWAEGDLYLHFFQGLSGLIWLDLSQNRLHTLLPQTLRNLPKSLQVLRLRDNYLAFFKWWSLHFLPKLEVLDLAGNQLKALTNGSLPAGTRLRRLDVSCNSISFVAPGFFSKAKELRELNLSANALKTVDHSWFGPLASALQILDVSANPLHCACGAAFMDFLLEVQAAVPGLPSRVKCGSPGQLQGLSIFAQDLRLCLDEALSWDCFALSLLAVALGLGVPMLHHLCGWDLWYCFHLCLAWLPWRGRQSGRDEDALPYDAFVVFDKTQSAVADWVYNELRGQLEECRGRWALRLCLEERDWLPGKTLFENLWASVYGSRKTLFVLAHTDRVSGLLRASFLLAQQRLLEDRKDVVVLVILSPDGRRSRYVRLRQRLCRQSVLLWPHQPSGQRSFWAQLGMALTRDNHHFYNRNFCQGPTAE

human TLR8 = human TLR8 (Homo sapiens (Human), UniProt Q9NR97); experiment: TLR8 inhibition reporter assay (HEK-Blue SEAP);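 further: SEAP driven by IFN-β minimal promoter with five NF-κB and AP-1 sites, compounds tested 0.05 nM to 50 µM, 22 h incubation, inhibition relative to agonist plus DMSO wells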
human TLR8, sequence (Q9NR97 27-1041): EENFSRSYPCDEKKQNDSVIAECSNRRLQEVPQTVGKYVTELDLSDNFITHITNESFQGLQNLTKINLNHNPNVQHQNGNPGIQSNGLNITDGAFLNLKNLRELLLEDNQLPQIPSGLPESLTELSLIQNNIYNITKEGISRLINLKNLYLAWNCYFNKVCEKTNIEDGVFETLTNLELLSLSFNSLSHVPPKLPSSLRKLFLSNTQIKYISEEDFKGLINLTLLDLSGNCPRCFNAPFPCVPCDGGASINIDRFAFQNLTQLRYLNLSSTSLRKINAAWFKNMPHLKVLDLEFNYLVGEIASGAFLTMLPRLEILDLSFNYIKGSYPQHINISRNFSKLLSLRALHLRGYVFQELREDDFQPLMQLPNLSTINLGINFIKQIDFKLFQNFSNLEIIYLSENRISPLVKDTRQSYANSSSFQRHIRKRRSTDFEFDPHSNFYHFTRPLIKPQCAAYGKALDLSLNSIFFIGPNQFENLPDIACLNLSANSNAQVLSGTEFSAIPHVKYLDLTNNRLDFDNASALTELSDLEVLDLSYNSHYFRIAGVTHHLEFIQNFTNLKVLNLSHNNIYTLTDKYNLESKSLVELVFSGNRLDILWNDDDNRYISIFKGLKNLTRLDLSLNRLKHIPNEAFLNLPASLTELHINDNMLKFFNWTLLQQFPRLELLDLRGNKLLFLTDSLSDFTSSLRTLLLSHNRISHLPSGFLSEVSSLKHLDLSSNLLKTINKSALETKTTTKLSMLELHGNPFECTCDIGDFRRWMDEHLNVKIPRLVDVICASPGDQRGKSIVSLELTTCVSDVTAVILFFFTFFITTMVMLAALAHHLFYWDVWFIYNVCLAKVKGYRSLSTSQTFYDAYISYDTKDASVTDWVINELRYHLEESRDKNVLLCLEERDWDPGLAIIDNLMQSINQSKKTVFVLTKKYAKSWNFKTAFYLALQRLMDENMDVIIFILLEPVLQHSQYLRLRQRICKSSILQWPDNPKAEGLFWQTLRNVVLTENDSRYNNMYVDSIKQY

human TLR7 = human TLR7 (Homo sapiens (Human), UniProt Q9NYK1); experiment: TLR7 inhibition reporter assay (HEK-Blue SEAP); format: cell-based; details: HEK-Blue cells overexpressing human TLR7, gardiquimod 7.5 μM stimulation
human TLR7, sequence (Q9NYK1 27-1049): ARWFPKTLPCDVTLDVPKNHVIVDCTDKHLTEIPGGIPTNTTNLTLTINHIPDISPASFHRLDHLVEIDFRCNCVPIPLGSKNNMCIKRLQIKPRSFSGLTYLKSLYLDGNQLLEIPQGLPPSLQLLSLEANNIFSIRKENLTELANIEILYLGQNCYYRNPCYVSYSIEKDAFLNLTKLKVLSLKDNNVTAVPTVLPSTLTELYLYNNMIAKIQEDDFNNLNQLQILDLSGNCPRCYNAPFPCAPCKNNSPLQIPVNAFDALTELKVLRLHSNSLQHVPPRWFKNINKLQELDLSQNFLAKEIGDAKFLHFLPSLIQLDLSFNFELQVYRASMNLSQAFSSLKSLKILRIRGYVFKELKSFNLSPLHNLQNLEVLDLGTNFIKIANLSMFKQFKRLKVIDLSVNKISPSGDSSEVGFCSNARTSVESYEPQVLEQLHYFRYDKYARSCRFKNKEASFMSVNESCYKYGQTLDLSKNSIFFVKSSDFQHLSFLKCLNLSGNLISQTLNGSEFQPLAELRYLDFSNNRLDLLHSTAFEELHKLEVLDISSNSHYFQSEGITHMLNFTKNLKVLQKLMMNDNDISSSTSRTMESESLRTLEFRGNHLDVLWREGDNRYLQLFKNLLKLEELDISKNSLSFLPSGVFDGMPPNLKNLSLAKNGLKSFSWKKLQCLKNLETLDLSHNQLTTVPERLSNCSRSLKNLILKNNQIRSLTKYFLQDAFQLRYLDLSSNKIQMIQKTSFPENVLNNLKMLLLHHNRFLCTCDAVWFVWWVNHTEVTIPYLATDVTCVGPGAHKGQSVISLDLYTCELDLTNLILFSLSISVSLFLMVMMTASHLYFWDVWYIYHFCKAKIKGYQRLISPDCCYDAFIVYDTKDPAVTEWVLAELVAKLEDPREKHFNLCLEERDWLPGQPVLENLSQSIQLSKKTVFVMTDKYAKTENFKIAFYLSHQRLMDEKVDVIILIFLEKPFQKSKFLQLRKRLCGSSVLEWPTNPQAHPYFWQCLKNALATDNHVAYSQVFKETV

[1] = read-out: TLR9 IC50; HEK-Blue cells overexpressing human TLR9, ODN2006 5 nM stimulation, SEAP reporter
[2] = read-out: TLR8 IC50; HEK-Blue cells overexpressing human TLR8, R848 15.9 μM stimulation, SEAP reporter
[3] = read-out: TLR9 IC50; HEK-Blue cells overexpressing human TLR9; ODN2006 5 nM stimulation; SEAP reporter
[4] = read-out: TLR8 IC50; HEK-Blue cells overexpressing human TLR8; R848 15.9 μM stimulation; SEAP reporter

IC50 (human TLR9; [1])	IC50 (human TLR8; [2])	IC50 (human TLR7)	IC50 (human TLR9; [3])	IC50 (human TLR8; [4])	IC50 (human TLR9)	IC50 (human TLR8)	Structure (SMILES)
1.53 µM	0.002 µM	0.0021 µM	–	–	–	–	Cc1cc(-c2[nH]c3cnc(C4CCN(C5CCOCC5)CC4)c(F)c3c2C(C)C)cn2ncnc12 [Example 187]
5.65 µM	0.0041 µM	0.0019 µM	–	–	–	–	CCN(C)C1CCC(c2ncc3[nH]c(-c4cn5ncnc5c(C)c4C)c(C(C)C)c3c2F)CC1 (stereo not drawn) [Example 263]
0.583 µM	0.016 µM	0.0089 µM	–	–	–	–	COc1cc(-c2[nH]c3cnc(C4CCC(NCC(C)(C)F)CC4)c(C)c3c2C(C)C)cn2ncnc12 (stereo not drawn) [Example 244]
3.34 µM	0.0027 µM	0.002 µM	–	–	–	–	COCCN1CCC(c2ncc3[nH]c(-c4cc(OC)c5ncnn5c4)c(C(C)C)c3c2F)CC1 [Example 21]
2.25 µM	0.044 µM	0.041 µM	–	–	–	–	COc1cc(-c2[nH]c3cnc(C4CCC(NCC(C)(C)OC)C4)cc3c2C(C)C)cn2ncnc12 (stereo not drawn) [Example 211]
0.855 µM	0.0077 µM	0.0047 µM	–	–	–	–	Cc1c(-c2[nH]c3cnc(C4CCN(C5COC5)CC4)cc3c2C(C)C)cn2ncnc2c1C [Example 30]
0.4 µM	0.01 µM	0.014 µM	–	–	–	–	Cc1c(-c2[nH]c3cnc(C4CCC(NCC(C)(C)O)CC4)c(C)c3c2C(C)C)cn2ncnc2c1C (stereo not drawn) [Example 122]
0.701 µM	0.001 µM	0.00033 µM	–	–	–	–	COc1cc(-c2[nH]c3cnc(N4CCC(N5CCC5)CC4)c(C)c3c2C(C)C)cn2ncnc12 [Example 87]
–	–	0.0048 µM	12.6 µM	0.011 µM	–	–	COc1cc(-c2[nH]c3cnc(N4CCN(C5CCOCC5)C[C@H]4C)c(F)c3c2C(C)C)cn2ncnc12 [Example 452]
8.62 µM	0.011 µM	0.0043 µM	–	–	–	–	COc1cc(-c2[nH]c3cnc(C4CCC(N(C)CC(N)=O)CC4)c(F)c3c2C(C)C)cn2ncnc12 (stereo not drawn) [Example 78]
8.78 µM	0.0011 µM	0.003 µM	–	–	–	–	Cc1c(-c2[nH]c3cnc(C4CCC(NCC(C)(C)C)CC4)c(F)c3c2C(C)C)cn2ncnc2c1C (stereo not drawn) [Example 200]
1.62 µM	0.00027 µM	0.00046 µM	–	–	–	–	Cc1c(N2CCC(NCC(C)(C)O)CC2)ncc2[nH]c(-c3cc(C)c4ncnn4c3)c(C(C)C)c12 [Example 283]
> 50 µM	0.0052 µM	0.026 µM	–	–	–	–	Cc1c(-c2[nH]c3cnc(N4CCN(CCS(C)(=O)=O)CC4)c(C)c3c2C(C)C)cn2ncnc2c1C [Example 415]
> 50 µM	0.013 µM	0.016 µM	–	–	–	–	Cc1c(-c2[nH]c3cnc(N4CCN(C5COC5)CC4)c(C)c3c2C(C)C)cn2ncnc2c1C [Example 417, 6-(3-isopropyl-4-methyl-5-(4-(oxetan-3-yl)piperazin-1-yl)-1H-pyrrolo[2,3-c]pyridin-2-yl)-7,8-dimethyl-[1,2,4]triazolo[1,5-a]pyridine]
8.7 µM	0.00038 µM	0.0027 µM	–	–	–	–	COc1cc(-c2[nH]c3cnc(N4CCN(CC(C)(C)O)CC4)c(F)c3c2C(C)C)cn2ncnc12 [Example 364]
0.396 µM	0.0068 µM	0.0057 µM	–	–	–	–	CCN(C)C1CCC(c2cc3c(C(C)C)c(-c4cc(OC)c5ncnn5c4)[nH]c3cn2)C1 (stereo not drawn) [Example 248]
5.3 µM	0.0017 µM	0.0036 µM	–	–	–	–	COc1cc(-c2[nH]c3cnc(N4CCC(N(C)C5COC5)CC4)c(F)c3c2C(C)C)cn2ncnc12 [Example 104]
0.282 µM	0.039 µM	0.013 µM	–	–	–	–	Cc1c(-c2[nH]c3cnc(C4CCC(N5CC6(COC6)C5)CC4)c(C)c3c2C(C)C)cn2ncnc2c1C (stereo not drawn) [Example 142]
16.8 µM	0.0026 µM	0.0021 µM	–	–	–	–	CNC(=O)CN(C)C1CCN(c2ncc3[nH]c(-c4cc(C)c5ncnn5c4)c(C(C)C)c3c2F)CC1 [Example 259]
–	–	0.0011 µM	2.57 µM	0.0007 µM	–	–	CNC(=O)CN(C)C1CCN(c2ncc3[nH]c(-c4cc(OC)c5ncnn5c4)c(C(C)C)c3c2F)CC1 [Example 221]
0.026 µM	8.22 µM	0.551 µM	–	–	–	–	COc1ccc(-c2[nH]c3cnc(C4CCN(C5CCN(CC(C)C)CC5)CC4)cc3c2C)cc1OC [Example 9]
–	–	0.00061 µM	–	–	0.664 µM	0.0014 µM	COc1cc(-c2[nH]c3cnc(N4CCNCC4)c(Cl)c3c2C(C)C)cn2ncnc12 [Example 6, 6-(4-chloro-3-isopropyl-5-(piperazin-1-yl)-1H-pyrrolo[2,3-c]pyridin-2-yl)-8-methoxy-[1,2,4]triazolo[1,5-a]pyridine]
–	–	0.01 µM	> 50 µM	0.0044 µM	–	–	Cc1c(-c2[nH]c3cnc(N4CCN(CC(C)C)C[C@H]4C)c(F)c3c2C(C)C)cn2ncnc2c1C [Example 460]
1.33 µM	0.0042 µM	0.0013 µM	–	–	–	–	Cc1cc(-c2[nH]c3cnc(C4CCC(N5CCC5)CC4)c(F)c3c2C(C)C)cn2ncnc12 (stereo not drawn) [Example 262]

IC50 (human TLR9; [1])	IC50 (human TLR8; [2])	IC50 (human TLR7)	IC50 (human TLR9; [3])	IC50 (human TLR8; [4])	IC50 (human TLR9)	IC50 (human TLR8)	Structure (SMILES)
0.558 µM	0.011 µM	0.0081 µM	–	–	–	–	Cc1c(-c2[nH]c3cnc(C4CCC(NC5CCOCC5)CC4)c(C)c3c2C(C)C)cn2ncnc2c1C (stereo not drawn) [Example 119]
1.79 µM	0.00052 µM	0.00049 µM	–	–	–	–	COc1cc(-c2[nH]c3cnc(N4CCC(NC5CCOCC5)CC4)c(C)c3c2C(C)C)cn2ncnc12 [Example 201]
1.57 µM	0.00044 µM	0.0003 µM	–	–	–	–	COc1cc(-c2[nH]c3cnc(C4CCC(N(C)C5COC5)CC4)c(F)c3c2C(C)C)cn2ncnc12 (stereo not drawn) [Example 197]
2.82 µM	0.00024 µM	0.00034 µM	–	–	–	–	CCN(C)C1CCN(c2ncc3[nH]c(-c4cc(OC)c5ncnn5c4)c(C(C)C)c3c2F)CC1 [Example 102]
–	–	0.0057 µM	16.3 µM	0.0016 µM	–	–	Cc1c(-c2[nH]c3cnc(N4CCN(C5CCOCC5)C[C@H]4C)c(F)c3c2C(C)C)cn2ncnc2c1C [Example 456]
2.68 µM	> 3.12 µM	> 3.12 µM	–	–	–	–	Cc1cc(-c2[nH]c3cnc(N4CCNCC4)cc3c2C(C)C)cn2ncnc12 [Example 301]
6 µM	> 3.12 µM	0.0095 µM	–	–	–	–	COc1cc(-c2[nH]c3cnc(N4CC5(CN(CC6(C)COC6)C5)C4)c(F)c3c2C(C)C)cn2ncnc12 [Example 376]
0.486 µM	0.007 µM	0.02 µM	–	–	–	–	COc1cc(-c2[nH]c3cnc(C4CCC(NCC(C)(C)OC)C4)cc3c2C(C)C)cn2ncnc12 (stereo not drawn) [Example 179]
1.83 µM	0.0006 µM	0.00016 µM	–	–	–	–	Cc1cc(-c2[nH]c3cnc(C4CCC(NC5COC5)CC4)c(F)c3c2C(C)C)cn2ncnc12 (stereo not drawn) [Example 80]
15.8 µM	0.0024 µM	0.0014 µM	–	–	–	–	COc1cc(-c2[nH]c3cnc(C4CCC(N(CC#N)C5COC5)CC4)c(F)c3c2C(C)C)cn2ncnc12 (stereo not drawn) [Example 115]
1.73 µM	0.0017 µM	0.01 µM	–	–	–	–	Cc1c(-c2[nH]c3cnc(N4CCN(C(=O)CN(C)C)CC4)c(C)c3c2C(C)C)cn2ncnc2c1C [Example 416, 1-(4-(2-(7,8-dimethyl-[1,2,4]triazolo[1,5-a]pyridin-6-yl)-3-isopropyl-4-methyl-1H-pyrrolo[2,3-c]pyridin-5-yl)piperazin-1-yl)-2-(dimethylamino)ethan-1-one]
0.217 µM	0.19 µM	0.028 µM	–	–	–	–	COc1cc(-c2[nH]c3cnc(C4CCN(C(=O)CN(C)C)CC4)cc3c2C(C)C)cn2ncnc12 [Example 343]
–	–	0.00082 µM	4.74 µM	0.0006 µM	–	–	COc1cc(-c2[nH]c3cnc(N4CCC(N(C)C)CC4)c(F)c3c2C(C)C)cn2ncnc12 [Example 218]
> 50 µM	0.013 µM	0.033 µM	–	–	–	–	COc1cc(-c2[nH]c3cnc(N4CCN(C5CCCOC5)CC4)c(F)c3c2C(C)C)cn2ncnc12 (single isomer, unassigned) [Example 387]
0.166 µM	0.047 µM	0.0076 µM	–	–	–	–	COc1cc(-c2[nH]c3cnc(C4CCC(NC(C)C)CC4)cc3c2C(C)C)cn2ncnc12 (stereo not drawn) [Example 315]
7.32 µM	0.011 µM	0.004 µM	–	–	–	–	COc1cc(-c2[nH]c3cnc(N4CCN(C5CCC5)C[C@H]4C)c(F)c3c2C(C)C)cn2ncnc12 [Example 441]
3.61 µM	0.00065 µM	0.00041 µM	–	–	–	–	CNC1CCN(c2ncc3[nH]c(-c4cc(C)c5ncnn5c4)c(C(C)C)c3c2F)CC1 [Example 71]
2.79 µM	0.0015 µM	0.0042 µM	–	–	–	–	COc1cc(-c2[nH]c3cnc(N4CCC(NC[C@@H](F)C(C)(C)O)CC4)c(C)c3c2C(C)C)cn2ncnc12 [Example 64]
–	–	0.0011 µM	1.97 µM	0.0015 µM	–	–	Cc1c(-c2[nH]c3cnc(N4CCN(C5CCN(C(C)C)CC5)C[C@H]4C)c(F)c3c2C(C)C)cn2ncnc2c1C [Example 462]
2.15 µM	0.001 µM	0.0013 µM	–	–	–	–	COc1cc(-c2[nH]c3cnc(C4CCC(NCC(C)(C)C)CC4)c(F)c3c2C(C)C)cn2ncnc12 (stereo not drawn) [Example 162]
1.45 µM	0.012 µM	0.012 µM	–	–	–	–	CCN(C)C1CCC(c2cc3c(C(C)C)c(-c4cc(OC)c5ncnn5c4)[nH]c3cn2)C1 (stereo not drawn) [Example 249]
1.03 µM	0.001 µM	0.0011 µM	–	–	–	–	COc1cc(-c2[nH]c3cnc(N4CCC(N5CC6(COC6)C5)CC4)c(C)c3c2C(C)C)cn2ncnc12 [Example 139]
0.896 µM	0.019 µM	0.0056 µM	–	–	–	–	CNCC(=O)N1CCC(c2ncc3[nH]c(-c4cc(OC)c5ncnn5c4)c(C(C)C)c3c2F)CC1 [Example 10]
